Experimental data taken from ChEMBL document CHEMBL4219142, “Discovery of potent DOT1L inhibitors by AlphaLISA based High Throughput Screening assay” (Bioorg Med Chem, 2018).
Blank lines part the entries; values can stand above or below the compound they belong to.

How the values were obtained:
[1] = target: T1, Histone-lysine N-methyltransferase, H3 lysine-79 specific (Homo sapiens, UniProt Q8TEK3); assay: (§1) Inhibition of recombinant human His6-SUMO tagged DOT1L (1 to 416 residues) expressed in Escherichia coli BL21(DE3) at 100 uM using oligonucleosome as substrate pretreated for 15 mins followed by substrate addition measured after 60 mins in presence of [3H]SAM by liquid scintillation counting method relative to control
Target sequence in this assay (Q8TEK3 whole entry, looked up, the tested form may be a part): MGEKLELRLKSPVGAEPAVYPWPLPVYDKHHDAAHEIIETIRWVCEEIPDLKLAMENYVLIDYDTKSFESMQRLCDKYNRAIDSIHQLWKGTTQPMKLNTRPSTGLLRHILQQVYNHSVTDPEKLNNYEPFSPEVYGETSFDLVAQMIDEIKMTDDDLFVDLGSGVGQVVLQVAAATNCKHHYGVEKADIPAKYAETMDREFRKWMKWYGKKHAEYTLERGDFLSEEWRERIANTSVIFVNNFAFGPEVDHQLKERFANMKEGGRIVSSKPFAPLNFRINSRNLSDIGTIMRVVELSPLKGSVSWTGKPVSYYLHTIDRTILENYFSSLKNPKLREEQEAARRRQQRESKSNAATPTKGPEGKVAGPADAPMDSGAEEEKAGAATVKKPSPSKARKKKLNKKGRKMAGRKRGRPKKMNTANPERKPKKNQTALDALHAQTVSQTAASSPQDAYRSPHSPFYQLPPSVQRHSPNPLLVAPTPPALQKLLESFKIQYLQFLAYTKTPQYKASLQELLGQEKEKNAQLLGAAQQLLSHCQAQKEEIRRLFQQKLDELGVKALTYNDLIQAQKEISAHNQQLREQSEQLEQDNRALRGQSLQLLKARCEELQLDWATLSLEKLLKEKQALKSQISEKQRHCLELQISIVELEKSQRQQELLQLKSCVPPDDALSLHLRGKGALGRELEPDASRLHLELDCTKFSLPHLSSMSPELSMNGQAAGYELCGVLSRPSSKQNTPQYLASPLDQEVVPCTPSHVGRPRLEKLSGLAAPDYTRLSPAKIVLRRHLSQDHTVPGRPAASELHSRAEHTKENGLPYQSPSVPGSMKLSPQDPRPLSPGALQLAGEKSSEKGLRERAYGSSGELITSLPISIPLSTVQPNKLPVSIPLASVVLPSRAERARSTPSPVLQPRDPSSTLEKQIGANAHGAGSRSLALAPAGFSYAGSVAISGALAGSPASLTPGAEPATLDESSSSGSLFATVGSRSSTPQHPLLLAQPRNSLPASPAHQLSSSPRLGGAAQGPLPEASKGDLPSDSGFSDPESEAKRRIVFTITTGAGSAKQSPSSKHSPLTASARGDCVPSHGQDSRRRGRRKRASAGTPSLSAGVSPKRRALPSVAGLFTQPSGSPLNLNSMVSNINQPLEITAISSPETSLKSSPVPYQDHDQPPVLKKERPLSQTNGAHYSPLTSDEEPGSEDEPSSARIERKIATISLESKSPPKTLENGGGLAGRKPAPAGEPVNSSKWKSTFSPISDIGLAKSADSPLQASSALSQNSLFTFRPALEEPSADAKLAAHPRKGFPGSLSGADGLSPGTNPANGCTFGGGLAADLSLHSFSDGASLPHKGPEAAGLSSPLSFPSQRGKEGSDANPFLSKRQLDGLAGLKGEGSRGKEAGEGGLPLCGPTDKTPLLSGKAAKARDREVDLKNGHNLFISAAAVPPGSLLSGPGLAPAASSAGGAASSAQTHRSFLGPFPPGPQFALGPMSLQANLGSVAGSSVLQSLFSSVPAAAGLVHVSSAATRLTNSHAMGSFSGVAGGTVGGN

[2] = target: T1, Histone-lysine N-methyltransferase, H3 lysine-79 specific; assay: as §1, with “50” for “100”
Target sequence in this assay (Q8TEK3 whole entry, looked up, the tested form may be a part): as above

[3] = target: T1, Histone-lysine N-methyltransferase, H3 lysine-79 specific; assay: Binding affinity to recombinant human His6-SUMO tagged DOT1L (1 to 416 residues) expressed in Escherichia coli BL21(DE3) by surface plasmon resonance method
Target sequence in this assay (Q8TEK3 whole entry, the tested form may be a part): as the sequence (Q8TEK3 whole entry, looked up, the tested form may be a part) above

[4] = target: T1, Histone-lysine N-methyltransferase, H3 lysine-79 specific; assay: as §1, with “25” for “100”
Target sequence in this assay (Q8TEK3 whole entry, looked up, the tested form may be a part): as above

[5] = target: T1, Histone-lysine N-methyltransferase, H3 lysine-79 specific; assay: Inhibition of recombinant human His6-SUMO tagged DOT1L (1 to 416 residues) expressed in Escherichia coli BL21(DE3) using oligonucleosome as substrate pretreated for 15 mins followed by substrate addition measured after 60 mins in presence of [3H]SAM by liquid scintillation counting method
Target sequence in this assay (Q8TEK3 whole entry, the tested form may be a part): as the sequence (Q8TEK3 whole entry, looked up, the tested form may be a part) above

MV4-11 [6] = assay: Antiproliferative activity against human MV411 cells after 72 hrs by Alamar blue assay; format: functional, cell-based; details: MV4-11, 72 h
[7] = target: T1, Histone-lysine N-methyltransferase, H3 lysine-79 specific; assay: Inhibition of recombinant human His6-SUMO tagged DOT1L (1 to 416 residues) expressed in Escherichia coli BL21(DE3) using oligonucleosome as substrate measured after 30 mins in presence of SAM by AlphaLISA assay
Target sequence in this assay (Q8TEK3 whole entry, the tested form may be a part): as the sequence (Q8TEK3 whole entry, looked up, the tested form may be a part) above

MV4-11 [8] = assay: Cell cycle arrest in human MV411 cells assessed as accumulation at G1 phase at 50 uM after 24 hrs by propidium iodide staining based flow cytometric analysis (reference value: 40.62 to 65.56%); format: functional
MV4-11 [9] = assay: Cell cycle arrest in human MV411 cells assessed as accumulation at G2 phase at 50 uM after 24 hrs by propidium iodide staining based flow cytometric analysis (reference value: 4.19 to 11.88%); format: functional
MV4-11 [10] = assay: Cell cycle arrest in human MV411 cells assessed as accumulation at S phase at 50 uM after 24 hrs by propidium iodide staining based flow cytometric analysis (reference value: 30.25 to 47.5%); format: functional
MV4-11 [11] = assay: Cell cycle arrest in human MV411 cells assessed as accumulation at G1 phase at 25 uM after 24 hrs by propidium iodide staining based flow cytometric analysis (reference value: 40.62 to 65.56%); format: functional
MV4-11 [12] = assay: Cell cycle arrest in human MV411 cells assessed as accumulation at G2 phase at 25 uM after 24 hrs by propidium iodide staining based flow cytometric analysis (reference value: 4.19 to 11.88%); format: functional
MV4-11 [13] = assay: Cell cycle arrest in human MV411 cells assessed as accumulation at S phase at 25 uM after 24 hrs by propidium iodide staining based flow cytometric analysis (reference value: 30.25 to 47.5%); format: functional
MV4-11 [14] = assay: Cell cycle arrest in human MV411 cells assessed as accumulation at G1 phase at 12.5 uM after 24 hrs by propidium iodide staining based flow cytometric analysis (reference value: 40.62 to 65.56%); format: functional
MV4-11 [15] = assay: Cell cycle arrest in human MV411 cells assessed as accumulation at G2 phase at 12.5 uM after 24 hrs by propidium iodide staining based flow cytometric analysis (reference value: 4.19 to 11.88%); format: functional
MV4-11 [16] = assay: Cell cycle arrest in human MV411 cells assessed as accumulation at S phase at 12.5 uM after 24 hrs by propidium iodide staining based flow cytometric analysis (reference value: 30.25 to 47.5%); format: functional
MV4-11 [17] = assay: Induction of apoptosis in human MV411 cells assessed as viable cells at 50 uM after 48 hrs by Annexin-V-FITC/propidium iodide staining based flow cytometric method (reference value: 88.5 to 94.5%); format: functional; details: MV4-11, 48 h, read-out: Activity
MV4-11 [18] = assay: Induction of apoptosis in human MV411 cells assessed as early apoptotic cells at 50 uM after 48 hrs by Annexin-V-FITC/propidium iodide staining based flow cytometric method (reference value: 1.15 to […]); format: functional
MV4-11 [19] = assay: Induction of apoptosis in human MV411 cells assessed as late apoptotic cells at 50 uM after 48 hrs by Annexin-V-FITC/propidium iodide staining based flow cytometric method (reference value: 4.38 to 4.63%); format: functional
MV4-11 [20] = assay: Induction of apoptosis in human MV411 cells assessed as necrotic cells at 50 uM after 48 hrs by Annexin-V-FITC/propidium iodide staining based flow cytometric method (Rvb <= 0.08%); format: functional
MV4-11 [21] = assay: Induction of apoptosis in human MV411 cells assessed as viable cells at 25 uM after 48 hrs by Annexin-V-FITC/propidium iodide staining based flow cytometric method (reference value: 88.5 to 94.5%); format: functional; details: MV4-11, 48 h, read-out: Activity
MV4-11 [22] = assay: Induction of apoptosis in human MV411 cells assessed as early apoptotic cells at 25 uM after 48 hrs by Annexin-V-FITC/propidium iodide staining based flow cytometric method (reference value: 1.15 to […]); format: functional
MV4-11 [23] = assay: Induction of apoptosis in human MV411 cells assessed as late apoptotic cells at 25 uM after 48 hrs by Annexin-V-FITC/propidium iodide staining based flow cytometric method (reference value: 4.38 to 4.63%); format: functional
MV4-11 [24] = assay: Induction of apoptosis in human MV411 cells assessed as necrotic cells at 25 uM after 48 hrs by Annexin-V-FITC/propidium iodide staining based flow cytometric method (Rvb <= 0.08%); format: functional
MV4-11 [25] = assay: Induction of apoptosis in human MV411 cells assessed as viable cells at 12.5 uM after 48 hrs by Annexin-V-FITC/propidium iodide staining based flow cytometric method (reference value: 88.5 to 94.5%); format: functional; details: MV4-11, 48 h, read-out: Activity
MV4-11 [26] = assay: Induction of apoptosis in human MV411 cells assessed as early apoptotic cells at 12.5 uM after 48 hrs by Annexin-V-FITC/propidium iodide staining based flow cytometric method (reference value: 1.15 to […]); format: functional
MV4-11 [27] = assay: Induction of apoptosis in human MV411 cells assessed as late apoptotic cells at 12.5 uM after 48 hrs by Annexin-V-FITC/propidium iodide staining based flow cytometric method (reference value: 4.38 to 4.63%); format: functional
MV4-11 [28] = assay: Induction of apoptosis in human MV411 cells assessed as necrotic cells at 12.5 uM after 48 hrs by Annexin-V-FITC/propidium iodide staining based flow cytometric method (Rvb <= 0.08%); format: functional
MV4-11 [29] = assay: Cell cycle arrest in human MV411 cells assessed as accumulation at G1 phase after 24 hrs by propidium iodide staining based flow cytometric analysis; format: functional

inhibition [1]: 41%
inhibition [2]: 17%
SMILES: Cc1occc1-c1nnc2sc(CCCc3ccccc3)nn12

inhibition [1]: 82%
Kd [3]: 7.4 µM
inhibition [2]: 67%
inhibition [4]: 54%
IC50 [5]: 13.7 µM
IC50 (MV4-11 [6]): 66.5 µM
SMILES: C(=C\c1nn2c(-c3ccncc3)nnc2s1)/c1ccco1

IC50 [7]: 33.7 µM
SMILES: Nc1ncnc2c1ncn2[C@@H]1O[C@H](C[C@@H](N)CC[C@H](N)C(=O)O)[C@@H](O)[C@H]1O [SINEFUNGIN]

inhibition [1]: 40%
inhibition [2]: 44%
SMILES: Fc1ccc(-c2nnc3sc(/C=C/c4ccco4)nn23)cc1

inhibition [1]: 27%
inhibition [2]: 11%
SMILES: Cc1occc1-c1nnc2sc(CCc3ccccc3)nn12

inhibition [1]: 74%
Kd [3]: 1.21 µM
inhibition [2]: 69%
inhibition [4]: 66.6%
IC50 [5]: 9.41 µM
IC50 (MV4-11 [6]): 124 µM
SMILES: Cc1cccc(-c2nnc3sc(/C=C/c4ccco4)nn23)c1

inhibition [1]: 60%
inhibition [2]: 53%
inhibition [4]: 48.1%
SMILES: COc1cc(-c2nnc3sc(/C=C/c4ccco4)nn23)cc(OC)c1OC

inhibition [1]: 53%
inhibition [2]: 53%
inhibition [4]: 38.5%
SMILES: COc1ccccc1/C=C/c1nn2c(-c3ccc(N(C)C)cc3)nnc2s1

inhibition [1]: 50%
inhibition [2]: 43%
SMILES: Fc1cccc(-c2nnc3sc(CCc4ccccc4)nn23)c1

inhibition [1]: 88%
inhibition [2]: 71%
inhibition [4]: 9%
SMILES: C(=C\c1nn2c(-c3cc4ccccc4o3)nnc2s1)/c1ccco1

The next lines start with the compound.

SMILES: Cc1occc1-c1nnc2sc(Cc3ccccc3)nn12
inhibition [1]: 24%
inhibition [2]: 13%

SMILES: C(=C\c1nn2c(-c3ccccc3)nnc2s1)/c1ccco1
inhibition [1]: 81%
Kd [3]: 4.78 to 4.87 µM
inhibition [2]: 79%
inhibition [4]: 79.4%
IC50 [5]: 7.01 µM
IC50 (MV4-11 [6]): 64.7 µM

SMILES: c1ccc2c(Cc3nn4c(-c5ccoc5)nnc4s3)cccc2c1
inhibition [1]: 77%
inhibition [2]: 59%
inhibition [4]: 43%

SMILES: Fc1cccc(-c2nnc3sc(/C=C/c4ccco4)nn23)c1
inhibition [1]: 29%
inhibition [2]: 22%

SMILES: C(=C\c1nn2c(N3CCOCC3)nnc2s1)/c1ccco1
inhibition [1]: 65%
inhibition [2]: 55%
inhibition [4]: 45%

SMILES: C(=C\c1nn2c(C3CCCCC3)nnc2s1)/c1ccco1
inhibition [1]: 72%
inhibition [2]: 68%
inhibition [4]: 40.2%

SMILES: COc1cccc(-c2nnc3sc(/C=C/c4ccco4)nn23)c1
inhibition [1]: 59%
inhibition [2]: 51%
inhibition [4]: 48.5%

SMILES: CN(C)c1ccc(-c2nnc3sc(/C=C/c4ccco4)nn23)cc1
inhibition [1]: 73%
IC50 [7]: 20.9 µM
Kd [3]: 9.3 µM
inhibition [2]: 60%
inhibition [4]: 56%
IC50 [5]: 20.9 µM
IC50 (MV4-11 [6]): 51.5 µM
Activity (MV4-11 [8]): 81.23%
Activity (MV4-11 [9]): 0%
Activity (MV4-11 [10]): 17.77%
Activity (MV4-11 [11]): 70.9%
Activity (MV4-11 [12]): 3.64%
Activity (MV4-11 [13]): 25.46%
Activity (MV4-11 [14]): 69.4%
Activity (MV4-11 [15]): 4.64%
Activity (MV4-11 [16]): 25.96%
viability at 50 µM (MV4-11 [17]): 0.83%
Activity (MV4-11 [18]): 49.3%
Activity (MV4-11 [19]): 49.8%
Activity (MV4-11 [20]): 0.09%
viability at 25 µM (MV4-11 [21]): 22.2%
Activity (MV4-11 [22]): 35.4%
Activity (MV4-11 [23]): 42.4%
Activity (MV4-11 [24]): 0.04%
viability at 12.5 µM (MV4-11 [25]): 91.6%
Activity (MV4-11 [26]): 2.01%
Activity (MV4-11 [27]): 6.29%
Activity (MV4-11 [28]): 0.05%
Activity (MV4-11 [29]): Dose-dependent effect
